Test results reported in US7834053B2, “Medicinal compositions improving brain function and method for improving brain function” (priority 2002, dated 2010).
“And” between values parts separate entries of the source, which are not always exact repeats. Equal values may be shown once.

Legend:
ddY male mice = experiment: Anti-hypoxic activity: survival time of mice in 4% oxygen / 96% nitrogen after oral administration; type: in vivo
Description: Test compounds A1, A2, A3, B1 and B2 were put to use after dissolution in distilled water. Test compounds C1 and C2 were put to use after suspending them in 0.5% solution of methylcellulose.
The test was carried out according to the method described in Japanese Journal of Pharmacology, Vol. 62, Page 81, 1993.
To one group (6-10 animals) of ddY male mice having an age of 4-5 weeks was orally administered a test compound dissolved in distilled water or suspended in 0.5% methyl cellulose solution. Thirty minutes after the administration, the mice were introduced into a glass container at a volume of 300 mL, and a gaseous mixture composed of 4% of oxygen and 96% of nitrogen was passed though the glass container at a flow rate of 5 L/minute. The period of time from the start of passing the gaseous mixture to the death of the mice was measured. To the control group, distilled water was administered orally.

nerve growth factor = details: WO96/12717; cited from earlier work
[1] = tested on: neuronal death caused by amyloid-beta-protein; details: Society for Neuroscience Abstracts 24, Part 1, 228, 1998; cited from earlier work
[2] = reported in the literature; cited from earlier work
in-brain acetylcholine = details: Society for Neuroscience Abstracts 21, 947, 1995; cited from earlier work
[3] = Society for Neuroscience Abstracts 21, 947, 1995; cited from earlier work
[4] = 100 mg/kg oral, alone, survival time vs control x100
[5] = 10 mg/kg oral, alone, survival time vs control x100, 30 min after administration
[6] = Compound (1) 10 mg/kg oral in combination with Compound B1 (Donepezil) 3 mg/kg
[7] = Compound (1) 10 mg/kg oral in combination with Compound B2 (Tacrine) 10 mg/kg

Compound: Cl.FC(F)(F)c1cccc(C2=CCN(CCc3ccc4ccccc4c3)CC2)c1 [Compound C2, SR57746A]
- Anti-hypoxic activity (%) (ddY male mice; 30 mg/kg oral, alone, survival time vs control x100): 100%
- Anti-hypoxic activity (%) (ddY male mice; [4]): 123%
- Anti-hypoxic activity (%) (ddY male mice; Compound (1) 100 mg/kg oral in combination with Compound B1 (Donepezil) 3 mg/kg): 111%

Compound: COC1=C(OC)C(=O)C(CCCCCCCCCCO)=C(C)C1=O [Compound C1, Idebenone]
- Anti-hypoxic activity (%) (ddY male mice; [4]): 104%
- Anti-hypoxic activity (%) (ddY male mice; 300 mg/kg oral, alone, survival time vs control x100): 108%
- Anti-hypoxic activity (%) (ddY male mice; Compound (1) 300 mg/kg oral in combination with Compound B1 (Donepezil) 3 mg/kg): 100%

Compound: CCN(CC)CCOC[C@H](O)c1ccc2sccc2c1.Cl [Compound A1, (R)-1-{benzo[b]thiophen-5-yl}-2-[2-(N,N-diethylamino}ethoxy]ethanol hydrochloride]
- effect on the action of nerve growth factor (nerve growth factor): exhibits an increasing effect
- protecting effect on the neuronal death caused by amyloid-beta-protein [1]: exhibits a protecting effect
- anti-hypoxic activity [2]: has an anti-hypoxic activity
- release of in-brain acetylcholine (in-brain acetylcholine): promotes the release of in-brain acetylcholine
- anti-amnestic activity [3]: an anti-amnestic activity
- Anti-hypoxic activity (%) (ddY male mice; [5]): 137%
- Anti-hypoxic activity (%) (ddY male mice; [6]): 211%
- Anti-hypoxic activity (%) (ddY male mice; [7]): 172%

Compound: Cl.Nc1c2c(nc3ccccc13)CCCC2 [Compound B2, 1,2,3,4-tetrahydro-9-acridinamine hydrochloride]
- anti-hypoxic activity [2]: anti-hypoxic activity is shown
- Anti-hypoxic activity (%) (ddY male mice; 10 mg/kg oral, alone, survival time vs control x100, 30 min after administration, hydrochloride): 127% and 107%

Compound: CN(CCO)CCCOCCc1ccc2sccc2c1.CN(CCO)CCCOCCc1ccc2sccc2c1.O=C(O)/C=C/C(=O)O [Compound A2, 2-[[3-(2-benzo[b]thiophen-5-yl-ethoxy)propyl](methyl)amino]-1-ethanol.1/2fumarate]
- Anti-hypoxic activity (%) (ddY male mice; [5]): 114%
- Anti-hypoxic activity (%) (ddY male mice; [6]): 168%
- Anti-hypoxic activity (%) (ddY male mice; [7]): 172%

Compound: O=C(O)/C=C\C(=O)O.OC1CN(CCCOCCc2ccc3sccc3c2)C1 [Compound A3, 1-[3-(2-(1-benzothiophen-5-yl)ethoxy]-propyl]-3-azetidinol-maleate]
- Anti-hypoxic activity (%) (ddY male mice; [5]): 111%
- Anti-hypoxic activity (%) (ddY male mice; [6]): 190%
- Anti-hypoxic activity (%) (ddY male mice; [7]): 149%

Compound: COc1cc2c(cc1OC)C(=O)C(CC1CCN(Cc3ccccc3)CC1)C2 (centres unmarked) [Compound B1, Donepezil]
- Anti-hypoxic activity (%) (ddY male mice; 3 mg/kg oral, alone, survival time vs control x100): 119% and 104%
